Laboratory results: patent US8680150B2, “Small molecule hematopoietic growth factor mimetic compounds that activate hematopoietic growth factor receptors” (Ligand Pharmaceuticals, Inc., priority 2009, dated 2014)

tested on: UT7/EPO Cell line; test: Cell proliferation assay in UT7/EPO cell line (ViaLight Plus); type: cell-based, human; conditions: compound at 10 uM; efficacy relative to EPO (100%); UT7/EPO cells expressing endogenous EPO receptor, starved of EPO overnight; 72 hours at 37° C.
Procedure: The primary testing for the exemplified compounds was performed in UT7/EPO Cell line. UT7/EPO is human leukemia cell line, obtained from Dr. Norio Komatsu (Blood, Vol 82 (2), pp 456-464, 1993). These cells express endogenous EPO receptor and are dependant upon EPO for growth and proliferation. Briefly, the cells were starved of EPO overnight and plated in 96 or 384 well plates. The compounds were added to the cells at 10 uM concentration. The plates were then incubated at 37° C. for 72 hours. The proliferative effect of the compounds was measured by a commercially available kit from Lonza (ViaLight Plus).

SMILES	Activity (%)
CN(C)c1ccc(C(=O)N/N=C/c2cccc(OCCO)c2)cc1 [Compound 195, 4-Dimethylaminobenz(3-(2-hydroxyethoxy)benzylidene)hydrazide]	7.3%
COc1cccc(/C=N/NC(=O)c2ccc(OCc3ccc(Br)cc3)cc2)c1 [Compound 142, 4-(4-Bromobenzyloxy)benz(3-methoxybenzylidene)hydrazide]	6.0%
Cc1ccccc1COCc1cccc(/C=N/NC(=O)c2ccc(N(C)C)cc2)c1 [Compound 188, 4-Dimethylaminobenz(3-(2-methylbenzyloxy)methylbenzylidene)hydrazide]	5.5%
COc1ccc(O)c(/C=N/NC(=O)c2ccc(-c3ccccc3)cc2)c1 [Compound 151, 4-Phenylbenz(2-hydroxy-5-methoxybenzylidene)hydrazide]	6.3%
CN(C)c1ccc(C(=O)N/N=C/c2cccc(COCc3ccccc3)c2)cc1 [Compound 184, 4-Dimethylaminobenz(3-benzyloxymethylbenzylidene)hydrazide]	21%
O=C(N/N=C/c1cccc(/C=C/c2ccccc2Cl)c1)c1ccc(-n2ccnc2)cc1 [Compound 191, 4-(1-Imidazolyl)benz(2E-(2-chlorophenyl)ethenylbenzylidene)hydrazide]	6.2%
CN(C)c1ccc(C(=O)N/N=C/c2cccc(/C=C/c3ccccc3)c2)cc1 [Compound 170, 4-Dimethylaminobenz(3-(2E-phenylethenyl)benzylidene)hydrazide]	4.7%
Cc1ccccc1/C=C/c1cccc(/C=N/NC(=O)c2ccc(N(C)C)cc2)c1 [Compound 181, 4-Dimethylaminobenz(2E-(2-methylphenyl)ethenylbenzylidene)hydrazide]	4.2%
COc1ccc(/C=N/NC(=O)c2ccc(OCc3ccc(C)cc3)cc2)cc1OC [Compound 138, 4-(4-Methylbenzyloxy)benz(3,4-dimethoxybenzylidene)hydrazide]	18%
COc1ccc(O)c(/C=N/NC(=O)COc2ccc3[nH]ccc3c2)c1 [Compound 173, 5-Indolyloxoacet(2-hydroxy-5-methoxybenzylidene)hydrazide]	12%
COc1cccc(/C=N/NC(=O)c2ccc(OCc3cccc(Cl)c3)cc2)c1 [Compound 153, 4-(3-Chlorobenzyloxy)benz(3-methoxybenzylidene)hydrazide]	5.3%
CN(C)c1ccc(/C=N/NC(=O)c2ccc(N3CCCC3=O)cc2)cc1 [Compound 127, 4-(2-Oxopyrrolidino-1-)benz(4-dimethylaminobenzylidene)hydrazide]	6.8%
C=Cc1ccc(COc2ccc(C(=O)N/N=C/c3cccc(OC)c3)cc2)cc1 [Compound 156, 4-(4-Vinylbenzyloxy)benz(3-methoxybenzylidene)hydrazide]	7.9%
COCc1cccc(/C=N/NC(=O)c2ccc(N(C)C)cc2)c1 [Compound 187, 4-Dimethylaminobenz(3-methoxymethylbenzylidene)hydrazide]	17%
COc1cccc(/C=N/NC(=O)c2ccc(OCc3ccc(Cl)cc3)cc2)c1 [Compound 133, 4-(4-Chlorobenzyloxy)benz(3-methoxybenzylidene)hydrazide]	14%
COc1cccc(/C=N/NC(=O)c2ccc(-n3ccnc3)cc2)c1 [Compound 193, 4-(1-Imidazolyl)benz(3-methoxybenzylidene)hydrazide]	7.3%
COc1cc(/C=N/NC(=O)c2ccc(N3CCCC3=O)cc2)ccc1O [Compound 130, 4-(2-Oxopyrrolidino-1-)benz(4-hydroxy-3-methoxybenzylidene)hydrazide]	20%
COc1ccc(C(=O)N/N=C/c2cccc(OC)c2)cc1 [Compound 128, 4-Methoxybenz(3-methoxybenzylidene)hydrazide]	5.6%
C=Cc1cccc(/C=N/NC(=O)c2ccc(N(C)C)cc2)c1 [Compound 167, 4-Dimethylaminobenz(3-vinylbenzylidene)hydrazide]	11%
